Assay results taken from patent publication US20230151342A1, “ZINC FINGER DEGRADATION DOMAINS” (THE BROAD INSTITUTE, INC, priority 2020, published 2023).
Where no end group is shown, it is not given here.

Assays:
K562-CD19 cells = assay: Jurkat CAR functional assay: CD69 expression after co-culture with K562-CD19 cells; format: cell-based; settings: higher concentrations of lenalidomide; overnight co-culture with K562-CD19
Excerpt: FIG. 12A-12D—ON-switch split CARs only function in the presence of lenalidomide. (FIG. 12A) Schematic of split CAR constructs. Each split CAR is composed of the indicated antigen-binding part A and the ITAM-containing part B. The lenalidomide-induced dimerization module is encoded by zinc fingers from IKZF3 or the engineered 913 zinc finger and a fragment of CRBN (CRBNΔ3). The intracellular domains of each split CAR part A is protected from CRL4^CRBN ubiquitination by K>R “K0” substitutions. The control second generation CAR FMC63-CD28-CD3z was also used. sCAR, split CAR. […] (FIG. 12C) Primary T cells were infected with lentiviruses encoding parts A and B of split CAR 913. Untransduced cells and cells expressing components A only, B only, and both A+B were purified by FACS. Cytotoxic activity of each sorted cell population was measured after overnight co-culture with NALM6 target cells and lenalidomide or vehicle control at the indicated effector:target ratios. The maximum plasma concentration for once daily 25 mg lenalidomide in multiple myeloma patients is indicated. (FIG. 12D) Scatterplots showing the production of cytokines after co-culture (1:1 CAR T:NALM6 ratio) in the presence of 1000 nM lenalidomide versus vehicle control. Experiments were performed in triplicate and error bars indicate standard deviation.
FIG. 24 Validation of lenalidomide-OFF-switch control of CAR T cell activation, as assessed by expression of the early activation marker CD69, in Jurkat T cells expressing various super-degron tagged chimeric antigen receptors. Regulation of CAR T cell activation with the indicated super-degrons, in comparison to the previously described degron d913. […]
Thalidomide analogs control degradable CAR T cell activation and effector functions in vitro and in vivo. […] Then cytokine production was analyzed in response to antigen stimulation.

NALM6 target cells [1] = assay: Cellular cytotoxicity assay of primary human CAR-T cells; format: cell-based; settings: 100 nM or 1000 nM lenalidomide; primary human CAR T cells, NALM6
Excerpt: (§1) To evaluate whether effector functions of primary T cells could be gated by lenalidomide, primary sCAR 913 T cells were generated. As the two split CAR components are delivered by separate lentivectors, this gave the ability to use FACS to purify cells expressing neither, one, or both components.
(§2) Thalidomide analogs control degradable CAR T cell activation and effector functions in vitro and in vivo. To test whether degradable CAR T cell activation could be controlled with lenalidomide, 19BBz, 19BBz-dIKZF3, 19BBz-d91.3, and 19BBz-d91.3* Jurkat CAR T cell lines were co-cultured with K562 cells engineered to express the target antigen CD19 (K562-CD19) and 11 lenalidomide concentrations or vehicle control. […] To evaluate whether effector functions of degradable CAR T cells could be controlled with lenalidomide, primary human CAR T cells were generated and cytotoxicity assays performed comparing the conventional 19BBz CAR to the degradable 19BBz-d91.3 CAR in vitro. […] Then cytokine production was analyzed in response to antigen stimulation.
(§3) Primary human CAR-T effector cells were co-cultured with NALM6 target cells engineered to express click beetle green luciferase at the indicated ratios for 16 hours. Luciferase activity was measured with a Synergy Neo2 luminescence microplate reader (Biotek). Cell culture supernatant from these experiments was analyzed for soluble cytokines (Luminex).

NALM6 target cells [2] = assay: Cytokine production in CAR T:NALM6 co-culture supernatant (Luminex); format: cell-based; settings: 100 nM lenalidomide; 9:1 CAR T:NALM6
Excerpt: as §1, §2, §3

[3] = system: JeKo-1 mantle cell lymphoma cells; assay: In vivo tumor control model, mantle cell lymphoma xenograft; settings: NSG mice engrafted with JeKo-1 cells; no drug
Experimental: (§4) FIG. 14A-14I—OFF-switch degradable CARs can be transiently depleted with pomalidomide and enforce tumor control in vivo. (FIG. 14A) Schematic of luciferase-tagged CAR constructs. […] (FIG. 14C) Summary of BLI 24 hours before, 6 hours after, and 24 hours after pomalidomide. Comparing the d91.3 and d91.3* CARs across each timepoint using two-tailed t-tests yielded p-values of 0.35, 0.003, and 0.14, respectively. (FIG. 14D) BLI representing CAR abundance over time. (FIG. 14E) Experimental design for in vivo tumor control model: NSG mice were injected intravenously with 1e6 GFP+/luciferase+ JeKo-1 tumor cells. At day 0, mice were randomly assigned on the basis of tumor burden to receive 1e6 control T cells (UTD), 19BBz, or 19BBz-d91.3. (FIG. 14F) Average luminescence of whole mice in the 3 groups over time. […] The percentage of JeKo-1 cells (FIG. 14H) and human T cell (FIG. 14I) among mononuclear cells in the bone marrow or spleen at day 35.
Subtle sequence changes to chimeric antigen receptors have been associated with intended and unintended consequences for CAR T cell efficacy and toxicity in clinical trials as well as pre-clinical models (23, 33, 34). Therefore, we determined whether addition of the zinc finger super-degron tag impacts CAR T cell activity in a mantle cell lymphoma xenograft model. We engrafted NSG mice with CD19+ luciferase+ JeKo-1 mantle cell lymphoma cells. […]

[4] = system: CAR protein abundance in CAR-Jurkat cells; assay: Jurkat CAR protein degradation (flow cytometry anti-Myc tag, western blot)
Experimental: CAR-Jurkat cells were treated with lenalidomide or vehicle control and then (FIG. 13B) analyzed by western blot for the specified targets or (FIG. 13C) analyzed by flow cytometry to quantify the CAR protein abundance normalized to vehicle control (anti-Myc tag). (FIG. 13D) CAR-Jurkat cells were co-cultured with K562-CD19 cells and lenalidomide or vehicle control and then analyzed by flow cytometry for the percentage of CD69+ cells. (FIG. 13E) The concentration of IL2 in supernatants from FIG. 13D was measured by ELISA. […] All experiments were performed in triplicate. Error bars indicate standard deviation.
Next, the kinetics of CAR depletion was examined after the addition of lenalidomide. […] We also examined the dynamics of CAR re-synthesis after washout of lenalidomide.
Normalized CAR expression was calculated via subtraction of the MFI of unstained cells and normalization to the signal intensity of vehicle control-treated cells. […] Luciferase-tagged CAR luminescence was measured with an EnVision plate reader (PerkinElmer).

2FKBP (N+L) Cas9 = assay: dTAG-induced degradation of FKBP-Cas9 (eGFP disruption, western blotting, degradation kinetics); format: cell-based; settings: multiple assays
Experimental: Degraders targeting variant Cas9 proteins is explored in the following example. SpCas9 variants were prepared and transfected into several cell lines.
Control of CRIPSR-Cas degradation can control editing outcomes.

[5] = 25 mg per day dosing; multiple myeloma patients; cited from earlier work
[6] = system: NALM6 cells engrafted in NSG mice; assay: In vivo CAR T cell cytokine release model; settings: day 5
Excerpt: To evaluate whether degradable CAR T cell cytokine release could be controlled in vivo, a high-level tumor engraftment model was used to provoke CAR T cell cytokine release. NALM6 cells were engrafted in non-obese diabetic scid gamma (NSG) mice one week before injection of conventional 19BBz CAR T cells, degradable 19BBz-d91.3 CAR T cells, or untransduced control T cells. On days 3-5 after T cell transfer, mice were either left untreated, treated daily, or treated twice daily with pomalidomide, which was used for in vivo experiments because it has a longer in vivo half-life than lenalidomide. On the afternoon of day 5, serum plasma concentrations were measured for a panel of human T cell cytokines (FIG. 14C). IFN-gamma levels were reduced four-fold (p=0.04) with daily and six-fold (p=0.01) with twice-daily pomalidomide treatment. […] Thus, pomalidomide can be used to limit cytokine release in vivo, the major driver of CAR T cell hyperactivation toxicities.

[7] = system: Jurkat cells expressing 19BBz-FLuc-d91.3 in NSG mice; assay: In vivo CAR depletion model (bioluminescent imaging of luciferase-tagged CAR)
Experimental: as §4
As expected, after exposure to lenalidomide, we observed a dose-dependent decrease in luminescence from Jurkat cells expressing degradable but not control luciferase-tagged CARs (FIG. 14A). Applicants then transplanted NSG mice with the engineered T cells. After establishing detectable engraftment by luminescence imaging, we administered a single 10 mg/kg oral pomalidomide dose the following day, and measured luminescence. […]

Question: With “19BBz-d91.3: degradable anti-CD19 CAR (4-1BB, CD3z) with d91.3 super-degron tag (FNVLMVHKRSHTGERPLQCEICGFTCRQKGNLLRHIKLHTGEKPFKCHLCNYACQRRDAL; not fully specified; cysteine pairing not given here)” as the molecule, how does the “inhibition of CD69 early activation marker expression” value (K562-CD19 cells) read?
Answer: The value was “more completely”.

Question: What about the “target cell killing (specific lysis)” value (NALM6 target cells [1]) of the same molecule?
Answer: The value was “not detected above background”.

Question: And the “secretion of cytokines reflective of T cell activation” value (NALM6 target cells [2])?
Answer: The value was “reduced the secretion of all evaluated cytokines”.

Question: And the “survival, tumor burden (BLI, spleen, bone marrow), T cell persistence versus conventional 19BBz CAR T cells” value [3]?
Answer: The value was “no significant differences”.

Question: What about the “Half-maximal depletion of the degradable CAR after addition of lenalidomide” value ([4]; Jurkat cells) of the same molecule?
Answer: The value was roughly 20 min.

Question: What about the “Half-maximal recovery of expression after washout of lenalidomide” value ([4]; Jurkat cells) of the same molecule?
Answer: Its value is roughly 3.6 h.

Question: What about the “fold lower lenalidomide concentration for depletion than endogenous IKZF3” value ([4]; western blot, Jurkat cells) of the same molecule?
Answer: Its value is “approximately 100 fold”.

Question: What about the “lenalidomide concentration for depletion as fraction of that required to deplete endogenous IKZF3” value ([4]; western blot, Jurkat cells) of the same molecule?
Answer: The value was “approximately 1/100”.

Question: With `CC[C@H](C(=O)N1CCCC[C@H]1C(=O)O[C@H](CCc1ccc(OC)c(OC)c1)c1ccccc1OCC(=O)NCCCCCCCCNc1ccc2c(c1)C(=O)N(C1CCC(=O)NC1=O)C2=O)c1cc(OC)c(OC)c(OC)c1` (stereo partly drawn) [dTAG] as the molecule, how does the “concentration sufficient for complete degradation of 2FKBP (N+L) Cas9” value (2FKBP (N+L) Cas9) read?
Answer: Its value is 1 µM.

Question: Which maximum plasma concentration [5] does the source give for `Nc1cccc2c1CN(C1CCC(=O)NC1=O)C2=O` (stereo not drawn) [lenalidomide, reference compound] here?
Answer: The maximum plasma concentration was 1.9 µM.

Question: What about the “t½ of CAR depletion upon addition of lenalidomide” value ([4]; CAR-Jurkat cells, 95% CI 0.29-0.38) of the same molecule?
Answer: Its value is 0.33 h.

Question: And the “t½ of CAR re-expression following lenalidomide treatment and drug washout” value ([4]; CAR-Jurkat cells, 95% CI 1.88-13.6)?
Answer: The value was 3.57 h.

Question: Which results are given for `Nc1cccc2c1C(=O)N(C1CCC(=O)NC1=O)C2=O` (stereo not drawn) [pomalidomide]?
Answer: reduction of serum IFN-gamma levels ([6]; daily 30 mg/kg pomalidomide oral gavage days 3-5, p=0.04): four-fold; reduction of serum IL-2 levels ([6]; daily pomalidomide, p=0.05): four-fold; reduction of serum IFN-gamma levels ([6]; twice-daily 30 mg/kg pomalidomide oral gavage days 3-5, p=0.01): six-fold; reduction of serum IL-2 levels ([6]; twice-daily pomalidomide, p=0.06): not significantly reduced; luminescence of degradable CAR after 24 hours ([7]; 24 hours after single 10 mg/kg oral pomalidomide dose): recovered to levels similar to that of the control CAR; reduction of luminescence from the degradable CAR versus pre-treatment ([7]; six hours after single 10 mg/kg oral pomalidomide dose, p=0.003): 5 fold
